Measured values taken from patent US10765676B2, “Trk-inhibiting compound” (ONO PHARMACEUTICAL CO., LTD., priority 2013, dated 2020).

Tested on: sodium monoiodoacetate-induced model rats
Assay: Analgesic effect on sodium monoiodoacetate-induced model rats
Format: in vivo, rat
Settings: MIA-induced model rats, day 24
[1] = right hind limb weight load ratio, test substance orally twice a day from day 14, experiment with tramadol as positive control (Table 7)
[2] = right hind limb weight load ratio, test substance orally twice a day from day 14, experiment with morphine as positive control (Table 8)

Row | Compound | Percent improvement (%) [1] [%] | Percent improvement (%) [2] [%] | also measured
1 | Nc1ncc(Cl)cc1-c1ccc(Oc2ncc(NC(=O)Nc3cc(C(F)(F)F)ccc3-n3cccn3)cn2)cc1 [Example 7, 1-(2-(1H-pyrazol-1-yl)-5-(trifluoromethyl)phenyl)-3-(2-(4-(2-amino-5-chloropyridin-3-yl)phenoxy)pyrimidin-5-yl) urea] | 61 |  | 
2 | Cc1cn(-c2ccc(C(F)(F)F)cc2NC(=O)Nc2cnc(Oc3ccc(-c4cc(Cl)cnc4N)cc3)nc2)nn1 [Example 8-1, 1-(2-(4-(2-amino-5-chloropyridin-3-yl)phenoxy)pyrimidin-5-yl)-3-(2-(4-methyl-1H-1,2,3-triazol-1-yl)-5-(trifluoromethyl)phenyl)urea] | 60 |  | 
3 | Nc1ncc(F)cc1-c1ccc(Oc2ncc(NC(=O)Nc3cc(C(F)(F)F)ccc3-n3ccnn3)cn2)cc1 [Example 14-5, 1-(2-(1H-1,2,3-triazol-1-yl)-5-(trifluoromethyl)phenyl)-3-(2-(4-(2-amino-5-fluoropyridin-3-yl)phenoxy)pyrimidin-5-yl)urea] | 47 |  | 
4 | Nc1ncc(F)cc1-c1ccc(Oc2ncc(NC(=O)Nc3cc(C(F)(F)F)ccc3-c3cccnc3)cn2)cc1 [Example 14-6, 1-(2-(4-(2-amino-5-fluoropyridin-3-yl)phenoxy)pyrimidin-5-yl)-3-(2-(pyridin-3-yl)-5-(trifluoromethyl)phenyl)urea] |  | 53 | 
5 | Nc1ncc(Cl)cc1-c1ccc(Oc2ncc(NC(=O)Nc3ccc(C(F)(F)F)cc3Cl)cn2)cc1 [Example 15-6, 1-(2-(4-(2-amino-5-chloropyridin-3-yl)phenoxy)pyrimidin-5-yl)-3-(2-chloro-4-(trifluoromethyl)phenyl)urea] | 51 |  | 
6 | Nc1ncc(C(F)(F)F)cc1-c1ccc(Oc2ncc(NC(=O)Nc3cc(C(F)(F)F)ccc3-n3ccc(C(F)(F)F)n3)cn2)cc1 [Example 15-52, 1-(2-{4-[2-amino-5-(trifluoromethyl)-3-pyridinyl]phenoxy}-5-pyrimidinyl)-3-{5-(trifluoromethyl)-2-[3-(trifluoromethyl)-1H-pyrazol-1-yl]phenyl}urea] |  | 60 | 
7 | Nc1ncc(Cl)cc1-c1ccc(Oc2ncc(NC(=O)Nc3cc(C(F)(F)F)ccc3-c3ccccc3)cn2)cc1 [Example 15-55, 1-{2-[4-(2-amino-5-chloro-3-pyridinyl)phenoxy]-5-pyrimidinyl}-3-[4-(trifluoromethyl)-2-biphenylyl]urea] |  | 62 | 
8 | Nc1ncc(Cl)cc1-c1ccc(Oc2ncc(NC(=O)Nc3cc(C(F)(F)F)ccc3-n3cc(Cl)cn3)cn2)cc1 [Example 15-63, 1-{2-[4-(2-amino-5-chloro-3-pyridinyl)phenoxy]-5-pyrimidinyl}-3-[2-(4-chloro-1H-pyrazol-1-yl)-5-(trifluoromethyl)phenyl]urea] |  | 53 | 
9 | Nc1ncc(Cl)cc1-c1ccc(Oc2ncc(NC(=O)Nc3ccc(C(F)(F)F)cc3C(F)(F)F)cn2)cc1 [Example 15-77, 1-{2-[4-(2-amino-5-chloro-3-pyridinyl)phenoxy]-5-pyrimidinyl}-3-[2,4-bis(trifluoromethyl)phenyl]urea] |  | 55 | 
10 | Nc1ncc(C(F)(F)F)cc1-c1ccc(Oc2ncc(NC(=O)Nc3cc(C(F)(F)F)ccc3-n3cc(Cl)cn3)cn2)cc1 [Example 15-87, 1-(2-{4-[2-amino-5-(trifluoromethyl)-3-pyridinyl]phenoxy}-5-pyrimidinyl)-3-[2-(4-chloro-1H-pyrazol-1-yl)-5-(trifluoromethyl)phenyl]urea] |  | 57 | 
11 | CS(=O)(=O)c1ccc(C(F)(F)F)cc1NC(=O)Nc1cnc(Oc2ccc(-c3cc(C(F)(F)F)cnc3N)cc2)nc1 [Example 15-98, 1-(2-{4-[2-amino-5-(trifluoromethyl)-3-pyridinyl]phenoxy}-5-pyrimidinyl)-3-[2-(methylsulfonyl)-5-(trifluoromethyl)phenyl]urea] |  | 57 | 
12 | CS(=O)(=O)c1ccc(C(F)(F)F)cc1NC(=O)Nc1cnc(Oc2ccc(-c3cc(Cl)cnc3N)cc2)nc1 [Example 15-104, 1-{2-[4-(2-amino-5-chloro-3-pyridinyl)phenoxy]-5-pyrimidinyl}-3-[2-(methylsulfonyl)-5-(trifluoromethyl)phenyl]urea] |  | 54 | 
13 | COc1ccn2ncc(-c3ccc(Oc4ncc(NC(=O)Nc5cc(C(F)(F)F)ccc5-c5cccnc5)cn4)cc3)c2n1 [Example 21-9, 1-(2-(4-(5-methoxypyrazolo[1,5-a]pyrimidin-3-yl)phenoxy)pyrimidin-5-yl)-3-(2-(pyridin-3-yl)-5-(trifluoromethyl)phenyl)urea] | 64 |  | 
14 | O=C(Nc1cnc(Oc2ccc(-c3cnn4cccnc34)cc2)nc1)Nc1cc(C(F)(F)F)ccc1-c1cccnc1 [Example 21-13, l-(2-(4-(pyrazolo[1,5-a]pyrimidin-3-yl)phenoxy)pyrimidin-5-yl)-3-(2-(pyridin-3-yl)-5-(trifluoromethyl)phenyl)urea] | 66 |  | 
15 | CN(C)c1ccn2ncc(-c3ccc(Oc4ncc(NC(=O)Nc5cc(C(F)(F)F)ccc5-c5cccnc5)cn4)cc3)c2n1 [Example 21-37, 1-(2-{4-[5-(dimethylamino)pyrazolo[1,5-a]pyrimidin-3-yl]phenoxy}-5-pyrimidinyl)-3-[2-(3-pyridinyl)-5-(trifluoromethyl)phenyl]urea] |  | 67 | 
16 | CN(C)c1ccn2ncc(-c3ccc(Oc4ncc(NC(=O)Nc5cc(C(F)(F)F)ccc5-c5ccnn5C)cn4)cc3)c2n1 [Example 21-51, 1-(2-{4-[5-(dimethylamino)pyrazolo[1,5-a]pyrimidin-3-yl]phenoxy}-5-pyrimidinyl)-3-[2-(1-methyl-1H-pyrazol-5-yl)-5-(trifluoromethyl)phenyl]urea] |  | 68 | 
17 | CN(C)c1ccn2ncc(-c3ccc(Oc4ncc(NC(=O)Nc5cc(C(F)(F)F)ccc5-c5ccccc5)cn4)cc3)c2n1 [Example 21-70, 1-(2-{4-[5-(dimethylamino)pyrazolo[1,5-a]pyrimidin-3-yl]phenoxy}-5-pyrimidinyl)-3-[4-(trifluoromethyl)-2-biphenylyl]urea] |  | 61 | 
18 | Cc1cccc(-c2ccc(C(F)(F)F)cc2NC(=O)Nc2cnc(Oc3ccc(-c4cnn5ccc(N(C)C)nc45)cc3)nc2)c1 [Example 21-73, 1-(2-{4-[5-(dimethylamino)pyrazolo[1,5-a]pyrimidin-3-yl]phenoxy}-5-pyrimidinyl)-3-[3′-methyl-4-(trifluoromethyl)-2-biphenylyl]urea] |  | 62 | 
19 | CN1CC[C@]23c4c5ccc(O)c4O[C@H]2[C@@H](O)C=C[C@H]3[C@H]1C5 [Morphine, morphine, reference compound] |  |  | Percent improvement (%) (3 mg/kg subcutaneously 1 hour before the measurement, positive control drug): 54%
20 | COc1cccc(C2(O)CCCCC2CN(C)C)c1 (centres unmarked) [Tramadol, tramadol, reference compound] |  |  | Percent improvement (%) (10 mg/kg subcutaneously 1 hour before the measurement, positive control drug): 43%
